Test results: patent EP0213526A1, “Spergualin-related compounds, a process for their preparation and their use as medicaments” (MICROBIAL CHEMISTRY RESEARCH FOUNDATION, priority 1985, dated 1987)

Assays:
[1] = test system: Gram-negative microorganisms; conditions: background statement; cited from earlier work
Ehrlich cancer = conditions: healing experiments, from Japanese Patent Public Disclosure No. 48975/1982; cited from earlier work
mouse leukemia FL-4 = conditions: healing experiments, from Japanese Patent Public Disclosure No. 48975/1982; cited from earlier work
sarcoma 180 (S-180) = conditions: healing experiments, from Japanese Patent Public Disclosure No. 48975/1982; cited from earlier work
[2] = test system: Gram-positive microorganisms; conditions: background statement; cited from earlier work
mouse leukemia L-1210 [3] = conditions: healing experiments, from Japanese Patent Public Disclosure No. 48975/1982; cited from earlier work
mouse leukemia L-1210 [4] = assay: Therapeutic effects on cancer in mice (life prolongation, mouse leukemia L-1210); format: in vivo; conditions: 6 consecutive days, male BDF1 mice; for Percent life pro-longation: 10^5 L-1210 cells i.p., T/C x 100; for Percent survival for 30 days: groups of four, L-1210
Protocol: Male BDF1 mice (5-wk old) in groups comprising four heads were inoculated intraperitoneally with 10^5 cells of mouse leukemia L-1210. Starting on the day of inoculation, a selected sample dissolved in a physiological saline solution was administered intraperitoneally to each animal for 6 consecutive days on a one-dose-per-day basis. After keeping the animals for 30 days, the life-prolongation effect of sample was determined form the following formula:
Life-prolongation effect = T/C x 100 = (Average number of days of survival of the treated group / Average number of days of survival of the control group) x 100.

[5] = Dose 0.20 mg/kg/day intraperitoneally
[6] = Dose 0.39 mg/kg/day intraperitoneally
[7] = Dose 0.78 mg/kg/day intraperitoneally
[8] = Dose 1.56 mg/kg/day intraperitoneally
[9] = Dose 3.13 mg/kg/day intraperitoneally
[10] = Dose 6.25 mg/kg/day intraperitoneally
[11] = Dose 12.5 mg/kg/day intraperitoneally
[12] = Dose 25 mg/kg/day intraperitoneally
[13] = Dose 50 mg/kg/day intraperitoneally

SMILES	Percent life pro-longation (mouse leukemia L-1210 [4]; [5])	Percent survival for 30 days (mouse leukemia L-1210 [4]; [5])	Percent life pro-longation (mouse leukemia L-1210 [4]; [6])	Percent survival for 30 days (mouse leukemia L-1210 [4]; [6])	Percent life pro-longation (mouse leukemia L-1210 [4]; [7])	Percent survival for 30 days (mouse leukemia L-1210 [4]; [7])	Percent life pro-longation (mouse leukemia L-1210 [4]; [8])	Percent survival for 30 days (mouse leukemia L-1210 [4]; [8])	Percent life pro-longation (mouse leukemia L-1210 [4]; [9])	Percent survival for 30 days (mouse leukemia L-1210 [4]; [9])	Percent life pro-longation (mouse leukemia L-1210 [4]; [10])	Percent survival for 30 days (mouse leukemia L-1210 [4]; [10])	Percent life pro-longation (mouse leukemia L-1210 [4]; [11])	Percent survival for 30 days (mouse leukemia L-1210 [4]; [11])	Percent life pro-longation (mouse leukemia L-1210 [4]; [12])	Percent survival for 30 days (mouse leukemia L-1210 [4]; [12])	Percent life pro-longation (mouse leukemia L-1210 [4]; [13])	Percent survival for 30 days (mouse leukemia L-1210 [4]; [13])	other results
N=C(N)NCCCC[C@H](O)CC(=O)NC(O)C(=O)NCCCCNCCCN (stereo partly drawn) [Spergualin]	–	–	–	–	–	–	–	–	–	–	–	–	–	–	–	–	–	–	effect of inhibiting the growth [1]: inhibiting the growth; therapeutic and life-prolonging effects (Ehrlich cancer): appreciable therapeutic and life-prolonging effects; therapeutic and life-prolonging effects (mouse leukemia FL-4): appreciable therapeutic and life-prolonging effects; therapeutic and life-prolonging effects (sarcoma 180 (S-180)): appreciable therapeutic and life-prolonging effects; effect of inhibiting the growth [2]: inhibiting the growth; therapeutic and life-prolonging effects (mouse leukemia L-1210 [3]): appreciable therapeutic and life-prolonging effects
COC(NC(=O)CCCc1ccc(NC(=N)N)cc1)C(=O)NCCCCNCCCN (racemic) [Compound 2, 10-{N-[4-(4-guanidinophenyl)butanoyl]-α-methoxyglycyl}-1,5,10-triazadecane]	104%	0/4	111%	0/4	118%	0/4	171%	0/4	> 368%	3/4	> 403%	3/4	> 417%	4/4	> 417%	4/4	0%	0/4	–
N=C(N)Nc1ccc(CCCC(=O)NC(O)C(=O)NCCCCNCCCN)cc1 (racemic) [Compound 1, 10-{N-[4-(4-guanidinophenyl)butanoyl]-α-hydroxyglycyl}-1,5,10-triazadecane]	110%	0/4	120%	0/4	155%	0/4	197%	0/4	> 335%	2/4	> 363%	2/4	> 401%	3/4	> 356%	2/4	0%	0/4	–
